According to US20220009914A1, “Analogs of Nitrofuran Antibiotics to Combat Resistance” (The Trustees of Indiana University, priority 2020, published 2022):
Read-outs that look alike come from different tables or passages of the source.

Assays:
[1] = target: T1, E. coli GroEL (Escherichia coli, UniProt P0A6F5); test: GroEL-mediated ATPase assay; assay type: biochemical
T1 construct: made in house; host or cells: NEB 5-alpha E. coli
Experimental: Evaluating compounds for inhibition in the GroEL-mediated ATPase assay. All compounds were evaluated for inhibiting E. coli GroEL-mediated ATPase activity as per our previously reported procedure although employing only GroEL in solution and not containing GroES or denatured MDH. Evaluating compounds for inhibition in the GroEL-mediated ATPase assay.
Reagent preparation: For this assay, four primary reagent solutions were prepared: 1) GroEL protein solution; 2) ATP initiation solution; 3) EDTA quench solution; 4) malachite green reporter solution. The GroEL protein solution consisted of 100 nM of GroEL in folding buffer (50 mM Tris-HCl, pH 7.4, 50 mM KCl, 10 mM MgCl2, and 1 mM DTT), which was prepared immediately prior to dispensing into the assay plates. For the ATP initiation solution, ATP solid was diluted into folding buffer to a final concentration of 2 mM. Quench solution contained 300 mM EDTA (pH 8.0). The malachite green reporter solution contained 0.034% w/v malachite green, 1.04% w/v ammonium molybdate, 1% Tween-20, and 1 M HCl dissolved in H2O.
Assay Protocol: First, 10 μL aliquots of the GroEL protein solution were dispensed into clear, flat-bottom 384-well polystyrene plates. […] After incubating for 45 minutes at 37° C., 10 μL of the EDTA quench solution was added to quench the reaction cycle. Then, 60 μL of the malachite green reporter solution was added and the plates were incubated at room temperature for 10 min. The absorbance of the malachite green-phosphate complex was measured at 600 nm using a Molecular Devices SpectraMax Plus384 microplate reader. A second set of baseline control plates were prepared analogously, but without GroEL protein solution, to correct for possible interference from compound absorbance or turbidity. […] Results presented represent the averages of IC50 values obtained from at least four replicates.
Evaluating analogs for inhibiting GroEL-mediated ATPase activity. […] Thus, we further tested analogs in a well-established GroEL ATPase assay that employed malachite green to monitor inorganic phosphate liberated as GroEL hydrolyzed ATP. Briefly, a solution of GroEL was incubated with test compounds (8-point, 3-fold dilution series) and the assay was initiated by addition of ATP. After incubating for 45 minutes, the ATPase reaction was quenched by the addition of EDTA. Malachite green was then added to the assay to bind and detect free phosphates in solution (absorbance detection at k=600 nm). If analogs inhibited ATPase activity, then there would be no free phosphates for malachite green to bind, leading to minimal absorbance at 600 nm.

[2] = target: T2, native rhodanese (Bos taurus, UniProt P00586); test: native rhodanese enzymatic activity counter-screen; assay type: biochemical; conditions: compounds added after refolding; read-out: Native Rho Activity IC50
T2 sequence (P00586 1-297): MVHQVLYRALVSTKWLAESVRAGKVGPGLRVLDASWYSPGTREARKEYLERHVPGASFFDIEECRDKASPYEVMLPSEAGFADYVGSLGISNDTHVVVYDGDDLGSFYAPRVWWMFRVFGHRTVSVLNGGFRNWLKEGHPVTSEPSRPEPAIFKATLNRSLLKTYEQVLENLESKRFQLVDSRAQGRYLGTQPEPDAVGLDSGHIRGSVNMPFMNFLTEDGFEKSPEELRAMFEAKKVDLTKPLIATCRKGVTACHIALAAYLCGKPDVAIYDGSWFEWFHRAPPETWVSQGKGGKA
Experimental: Counter-screening compounds for inhibition of native rhodanese enzymatic activity. Reagent Preparations & Assay Protocol: Reagents were identical to those used in the GroEL/ES-dRho refolding assay described above; however, the assay protocol differed in the sequence of compound addition to the wells. Compounds were pin-transferred after 50 minute incubation for the refolding cycle, but prior to the addition of the thiocyanate enzymatic assay stock. Thus, the refolding reactions were allowed to proceed for 50 min at 37° C. in the absence of test compounds, but the enzymatic activity of the refolded rhodanese reporter enzyme was monitored in the presence of test compounds (inhibitor concentration range during the enzymatic reporter reaction is 100 μM to 46 nM—3-fold dilutions). IC50 values for the rhodanese reporter enzyme were determined as described above. Results presented represent the averages of IC50 values obtained from at least four replicates.
All compounds were counter-screened for inhibiting the enzymatic activity of the native Rho reporter enzyme as per our previously reported procedure. Results presented represent the averages of IC50 values obtained from at least four replicates.

[3] = in vitro; conditions: human
Experimental: (§1) Evaluating compound effects on the viability of human colon and small intestine cells. […] Evaluating compound effects on the viability of human colon and small intestine cells. Evaluation of compound cytotoxicities to FHC colon and FHs 74 Int small intestine cells were performed using Alamar Blue-based viability assays. […] FHs 74 Int cells were maintained in Hybri-care medium (ATCC 46-X) supplemented with 30 ng/mL recombinant epidermal growth factor (EGF) and 10% FBS (Midwest Scientific, USDAFBS).

[4] = in vitro; conditions: human; remark: listed apart in the source
Experimental: as §1

T1 sequence (P0A6F5 2-548): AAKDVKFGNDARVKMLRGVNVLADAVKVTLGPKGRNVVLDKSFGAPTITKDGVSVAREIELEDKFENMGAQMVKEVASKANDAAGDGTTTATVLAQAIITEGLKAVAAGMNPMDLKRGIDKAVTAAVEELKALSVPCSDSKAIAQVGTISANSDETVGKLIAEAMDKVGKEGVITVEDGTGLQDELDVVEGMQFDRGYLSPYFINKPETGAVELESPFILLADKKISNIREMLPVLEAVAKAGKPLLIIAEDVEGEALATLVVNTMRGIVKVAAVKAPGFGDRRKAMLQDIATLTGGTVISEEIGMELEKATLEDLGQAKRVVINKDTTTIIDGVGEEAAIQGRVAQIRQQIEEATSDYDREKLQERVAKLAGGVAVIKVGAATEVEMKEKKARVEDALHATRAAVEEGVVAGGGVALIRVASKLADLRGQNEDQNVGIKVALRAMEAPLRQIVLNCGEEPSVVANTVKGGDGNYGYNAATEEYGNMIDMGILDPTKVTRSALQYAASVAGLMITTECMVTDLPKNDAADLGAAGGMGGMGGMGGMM

## O=C(N/N=C/c1ccc(O)c2ncccc12)c1ccccc1Oc1ccccc1 [Compound 10, N′-((8-hydroxyquinolin-5-yl)methylene)-2-phenoxybenzohydrazide]
[1]
  IC50: > 250 µM
[2]
  IC50: 89 µM

## O=C(N/N=C/c1ccc(O)c2ncccc12)c1ccc(NS(=O)(=O)c2cccs2)cc1 [Compound 13, N-(4-(2-((8-hydroxyquinolin-5-yl)methylene)hydrazine-1-carbonyl)phenyl)thiophene-2-sulfonamide]
[1]
  IC50: > 250 µM
[2]
  IC50: > 100 µM

## CN(C)c1ccc(C(=O)N/N=C/c2ccc(O)c3ncccc23)cc1 [Compound 8, 4-(dimethylamino)-N′-((8-hydroxyquinolin-5-yl)methylene)benzohydrazide]
[1]
  IC50: > 250 µM
[2]
  IC50: 67 µM

## COc1ccc(C(=O)N/N=C/c2cccc3ncccc23)cc1 [Compound 31, 4-methoxy-N′-(quinolin-5-ylmethylene)benzohydrazide]
[1]
  IC50: > 250 µM
[2]
  IC50: > 100 µM
[3]
  CC50 at 48 h: > 100 µM
[4]
  CC50 at 48 h: > 100 µM

## COc1ccc(C(=O)N/N=C/c2ccc(O)c3ncccc23)cc1 [Compound 1, N′-((8-hydroxyquinolin-5-yl)methylene)-4-methoxybenzohydrazide]
[1]
  IC50: > 250 µM
[2]
  IC50: 98 µM

## O=C(N/N=C/c1ccc(O)c2ncccc12)c1cccc2ccccc12 [Compound 9, N′-((8-hydroxyquinolin-5-yl)methylene)-1-naphthohydrazide]
[1]
  IC50: > 250 µM
[2]
  IC50: 97 µM

## CCN(CC)S(=O)(=O)c1cccc(C(=O)N/N=C/c2ccc(O)c3ncccc23)c1 [Compound 12, N,N-diethyl-3-(2-((8-hydroxyquinolin-5-yl)methylene)hydrazine-1-carbonyl)benzenesulfonamide]
[1]
  IC50: > 250 µM
[2]
  IC50: 81 µM

## CCN(CC)S(=O)(=O)c1cccc(C(=O)N/N=C/c2ccc([N+](=O)[O-])o2)c1 [Compound 25, N,N-diethyl-3-(2-((5-nitrofuran-2-yl)methylene)hydrazine-1-carbonyl)benzenesulfonamide]
[1]
  IC50: > 250 µM
[2]
  IC50: > 100 µM
[3]
  CC50 at 48 h: > 100 µM
[4]
  CC50 at 48 h: > 100 µM

## O=C(N/N=C/c1ccc([N+](=O)[O-])o1)c1ccc(NS(=O)(=O)c2cccs2)cc1 [Compound 26, N-(4-(2-((5-nitrofuran-2-yl)methylene)hydrazine-1-carbonyl)phenyl)thiophene-2-sulfonamide]
[1]
  IC50: > 250 µM
[2]
  IC50: 44 µM
[3]
  CC50 at 48 h: 70 µM
[4]
  CC50 at 48 h: > 100 µM

## O=C(N/N=C/c1ccc(O)c2ncccc12)c1ccccc1 [Compound 5, N′-((8-hydroxyquinolin-5-yl)methylene)benzohydrazide]
[1]
  IC50: > 250 µM
[2]
  IC50: 95 µM

## O=Cc1ccc([N+](=O)[O-])o1 [Compound 41, reference compound]
[1]
  IC50: > 250 µM
[2]
  IC50: 32 µM

## O=C(N/N=C/c1cccc2ccccc12)c1ccccc1 [Compound 34, N′-(naphthalen-1-ylmethylene)benzohydrazide]
[1]
  IC50: > 250 µM
[2]
  IC50: > 100 µM
[3]
  CC50 at 48 h: > 100 µM
[4]
  CC50 at 48 h: > 100 µM

## O=[N+]([O-])c1ccc(O)c2ncccc12 [Nitroxoline, reference compound]
[1]
  IC50: > 250 µM
[2]
  IC50: 2 µM

## O=C(N/N=C/c1ccc(O)c2ncccc12)c1cccs1 [Compound 3, N′-((8-hydroxyquinolin-5-yl)methylene)thiophene-2-carbohydrazide]
[1]
  IC50: > 250 µM
[2]
  IC50: 87 µM
[3]
  CC50 at 48 h: 86 µM
[4]
  CC50 at 48 h: 85 µM

## O=C(N/N=C/c1ccc(O)c2ncccc12)c1ccc(O)cc1 [Compound 7, 4-hydroxy-N′-((8-hydroxyquinolin-5-yl)methylene)benzohydrazide]
[1]
  IC50: > 250 µM
[2]
  IC50: 72 µM
[3]
  CC50 at 48 h: 67 µM
[4]
  CC50 at 48 h: > 100 µM

## O=C(N/N=C/c1ccc(O)cc1)c1ccccc1 [Compound 36, N′-(4-hydroxybenzylidene)benzohydrazide]
[1]
  IC50: > 250 µM
[2]
  IC50: > 100 µM
[3]
  CC50 at 48 h: > 100 µM
[4]
  CC50 at 48 h: > 100 µM

## COc1ccc(C(=O)N/N=C/c2ccccc2)cc1 [Compound 37, N′-benzylidene-4-methoxybenzohydrazide]
[1]
  IC50: > 250 µM
[2]
  IC50: > 100 µM
[3]
  CC50 at 48 h: > 100 µM
[4]
  CC50 at 48 h: > 100 µM

## CCOc1ccc(S(=O)(=O)Nc2ccc(C(=O)N/N=C/c3ccc(O)c4ncccc34)cc2)cc1 [Compound 15, 4-ethoxy-N-(4-(2-((8-hydroxyquinolin-5-yl)methylene)hydrazine-1-carbonyl)phenyl)benzenesulfonamide]
[1]
  IC50: > 250 µM
[2]
  IC50: > 100 µM

## COc1ccc(C(=O)NN)cc1 [Compound 42, reference compound]
[1]
  IC50: > 250 µM
[2]
  IC50: > 100 µM
[3]
  CC50 at 48 h: > 100 µM
[4]
  CC50 at 48 h: > 100 µM

## COc1ccc(C(=O)N/N=C/c2ccc(O)c3ccccc23)cc1 [Compound 29, N′-((4-hydroxynaphthalen-1-yl)methylene)-4-methoxybenzohydrazide]
[1]
  IC50: > 250 µM
[2]
  IC50: 66 µM
[3]
  CC50 at 48 h: > 100 µM
[4]
  CC50 at 48 h: > 100 µM

## COc1ccc(C(=O)N/N=C/c2ccco2)cc1 [Compound 39, N′-(furan-2-ylmethylene)-4-methoxybenzohydrazide]
[1]
  IC50: > 250 µM
[2]
  IC50: > 100 µM
[3]
  CC50 at 48 h: > 100 µM
[4]
  CC50 at 48 h: > 100 µM

## O=C(N/N=C/c1ccc([N+](=O)[O-])o1)c1cccc(Oc2ccccc2)c1 [Compound 24, N′-((5-nitrofuran-2-yl)methylene)-3-phenoxybenzohydrazide]
[1]
  IC50: > 250 µM
[2]
  IC50: 65 µM

## O=C(N/N=C/c1ccc(O)c2ncccc12)c1cccc(Oc2ccccc2)c1 [Compound 11, N′-((8-hydroxyquinolin-5-yl)methylene)-3-phenoxybenzohydrazide]
[1]
  IC50: > 250 µM
[2]
  IC50: 85 µM

## O=C(N/N=C/c1ccc(O)c2ncccc12)c1ccc(Cl)s1 [Compound 4, 5-chloro-N′-((8-hydroxyquinolin-5-yl)methylene)thiophene-2-carbohydrazide]
[1]
  IC50: > 250 µM
[2]
  IC50: 14 µM

## O=C(N/N=C/c1ccc(O)c2ncccc12)c1ccc(NS(=O)(=O)c2ccc(Br)cc2)cc1 [Compound 14, 4-bromo-N-(4-(2-((8-hydroxyquinolin-5-yl)methylene)hydrazine-1-carbonyl)phenyl)benzenesulfonamide]
[1]
  IC50: > 250 µM
[2]
  IC50: > 100 µM

## O=C(N/N=C/c1ccc([N+](=O)[O-])o1)c1ccccc1Oc1ccccc1 [Compound 23, N′-((5-nitrofuran-2-yl)methylene)-2-phenoxybenzohydrazide]
[2]
  IC50: 43 µM

## O=C(N/N=C/c1ccc([N+](=O)[O-])o1)c1cccc2ccccc12 [Compound 22, N′-((5-nitrofuran-2-yl)methylene)-1-naphthohydrazide]
[1]
  IC50: > 250 µM
[2]
  IC50: 45 µM

## O=Cc1ccc(O)c2ncccc12 [Compound 40, reference compound]
[1]; GroEL only, no GroES or dMDH, read-out: GroEL ATPase IC50
  IC50: > 250 µM
[2]
  IC50: 18 µM
